Test results from patent publication US11214594B2, “Antimicrobial peptide having synergistic antibacterial effect with antibiotics on multidrug resistant bacteria, and use thereof” (priority 2016, dated 2022).
In brackets after ≈: the same amount, converted by molar mass. Where a SMILES comes first, the peptide text is derived from it.

Tests used:
MDREC 1238 = assay type: cell-based, Escherichia coli
Description: (§1) For the antibacterial activity, a minimal inhibitory concentration (MIC) of a peptide in which fungus bodies were not split in an MH medium with sufficient nutrients was measured.
(§2) Specifically, the strains described in the following [Table 2] were purchased and diluted with an MH medium such that the number of bacteria was 2×10^6 colony-forming units (CFUs), 100 μl of each of the diluted strains was aliquoted into a 96-well microtiter plate, and then 100 μl of a peptide solution diluted with the MH medium (solution diluted stepwise at 2: 1) was added to each well.

MDRPA 2002 = assay type: cell-based, Pseudomonas aeruginosa
Description: as §1, §2

MDRPA 2003 = assay type: cell-based, Pseudomonas aeruginosa
Description: as §1, §2

MDRAB 12036 = assay type: cell-based, Acinetobacter baumannii
Description: as §1, §2

S. typhimurium = assay: microbe, parasite or virus in culture; assay type: cell-based, Salmonella typhimurium
Summary of the method: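 Broth microdilution in MH medium: bacterial strains diluted to 2×10^6 CFU were mixed with equal volumes of peptide serially diluted twofold in MH medium.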

MDRST 8007 = assay: Minimal inhibitory concentration (MIC), single agent; assay type: cell-based, Salmonella typhimurium; settings: agent alone
Description: as §1, §2

MRSA 3114 = assay type: cell-based, Staphylococcus aureus; settings: 3114
Description: as §1, §2

MRSA 3126 = assay type: cell-based, Staphylococcus aureus; settings: 3126
Description: as §1, §2

MDREC 1229 = assay: MIC of antibiotic during combined treatment with antimicrobial peptide; assay type: cell-based, Escherichia coli
Description: (§3) Specifically, the strains described in [Table 2] were prepared and diluted with an MH medium such that the number of bacteria was 2×10^6 colony-forming units (CFUs) per 1 ml, 100 μl of the diluted strains was each aliquoted into a 96-well microtiter plate, and then 50 μl of a peptide solution diluted with the MH medium from the MIC value (solution diluted stepwise at 2: 1) was added to each well. Thereafter, the MIC value of each mixed solution was determined by diluting the antibiotic solution with the MH medium, adding 50 μl of the diluted solution to each well, and performing an experiment even under a reversed condition.

MDRAB 12035 = assay: as above; assay type: cell-based, Acinetobacter baumannii
Description: as §3

[1] = peptide treatment concentration 1 μg/ml
[2] = peptide treatment concentration 2 μg/ml
[3] = peptide treatment concentration 4 μg/ml
[4] = peptide treatment concentration 6 μg/ml
[5] = peptide treatment concentration 8 μg/ml
[6] = peptide treatment concentration 16 μg/ml
[7] = peptide treatment concentration 32 μg/ml
[8] = peptide treatment concentration 64 μg/ml

## CC[C@H](C)[C@H](NC(=O)[C@H](CCCCN)NC(=O)[C@H](Cc1c[nH]c2ccccc12)NC(=O)[C@@H](N)CCCNC(=N)N)C(=O)N[C@@H](Cc1ccccc1)C(=O)N[C@@H](CCCCN)C(=O)N[C@@H](CCCCN)C(=O)N[C@H](C(=O)N1CCC[C@H]1C(=O)N[C@@H](CCCCN)C(=O)N[C@@H](Cc1ccccc1)C(=O)N[C@@H](CC(C)C)C(=O)N[C@@H](Cc1c[nH]cn1)C(=O)N[C@@H](CO)C(=O)N[C@@H](CC(C)C)C(=O)N[C@@H](CCCCN)C(=O)N[C@@H](CCCCN)C(=O)N[C@@H](Cc1ccccc1)C(N)=O)[C@@H](C)CC [PapMA-6, RWK IFK KIP KFL HSL KKF-NH2] (H-RWKIFKKIPKFLHSLKKF-NH2; N-terminus assumed)
MDREC 1238
  Minimal inhibitory concentration MIC: 64 µg/mL (≈ 27.3 µM)
MDRPA 2002
  Minimal inhibitory concentration MIC: 32 µg/mL (≈ 13.7 µM)
MDRPA 2003
  Minimal inhibitory concentration MIC: 32 µg/mL (≈ 13.7 µM)
MDRAB 12036
  Minimal inhibitory concentration MIC: 64 µg/mL (≈ 27.3 µM)
S. typhimurium
  Minimal inhibitory concentration MIC: 16 µg/mL (≈ 6.83 µM)
MDRST 8007
  Minimal inhibitory concentration MIC: 32 µg/mL (≈ 13.7 µM)
MRSA 3114
  Minimal inhibitory concentration MIC: >128 µg/mL
MRSA 3126
  Minimal inhibitory concentration MIC: >128 µg/mL
MDREC 1229; [1]
  Antibiotic MIC, Erythromycin: 64 µg/mL
  Antibiotic MIC, Linezolid: 128 µg/mL
  Antibiotic MIC, Vancomycin: >128 µg/mL
MDREC 1229; [2]
  Antibiotic MIC, Erythromycin: 32 µg/mL
  Antibiotic MIC, Linezolid: 64 µg/mL
  Antibiotic MIC, Vancomycin: >128 µg/mL
MDREC 1229; [3]
  Antibiotic MIC, Erythromycin: 8 µg/mL
  Antibiotic MIC, Linezolid: 32 µg/mL
  Antibiotic MIC, Vancomycin: >128 µg/mL
MDREC 1229; [4]
  Antibiotic MIC, Erythromycin: 2 µg/mL
  Antibiotic MIC, Linezolid: 8 µg/mL
  Antibiotic MIC, Vancomycin: 64 µg/mL
MDREC 1229; [5]
  Antibiotic MIC, Erythromycin: 1 µg/mL
  Antibiotic MIC, Linezolid: 8 µg/mL
  Antibiotic MIC, Vancomycin: 16 µg/mL
MDREC 1229; [6]
  Antibiotic MIC, Erythromycin: 0.25 µg/mL
  Antibiotic MIC, Linezolid: 4 µg/mL
  Antibiotic MIC, Vancomycin: 4 µg/mL
MDREC 1229; [7]
  Antibiotic MIC, Erythromycin: 0.125 µg/mL
  Antibiotic MIC, Linezolid: 1 µg/mL
  Antibiotic MIC, Vancomycin: 2 µg/mL
MDREC 1229; [8]
  Antibiotic MIC, Erythromycin: 0 µg/mL
  Antibiotic MIC, Linezolid: 0 µg/mL
  Antibiotic MIC, Vancomycin: 0 µg/mL
MDRAB 12035; [1]
  Erythromycin MIC during combined treatment with peptide: 16 µg/mL
  Linezolid MIC during combined treatment with peptide: 128 µg/mL
  Vancomycin MIC during combined treatment with peptide: >128 µg/mL
MDRAB 12035; [2]
  Erythromycin MIC during combined treatment with peptide: 8 µg/mL
  Linezolid MIC during combined treatment with peptide: 32 µg/mL
  Vancomycin MIC during combined treatment with peptide: 128 µg/mL
MDRAB 12035; [3]
  Erythromycin MIC during combined treatment with peptide: 4 µg/mL
  Linezolid MIC during combined treatment with peptide: 16 µg/mL
  Vancomycin MIC during combined treatment with peptide: 64 µg/mL
MDRAB 12035; [4]
  Erythromycin MIC during combined treatment with peptide: 0.5 µg/mL
  Linezolid MIC during combined treatment with peptide: 8 µg/mL
  Vancomycin MIC during combined treatment with peptide: 8 µg/mL
MDRAB 12035; [5]
  Erythromycin MIC during combined treatment with peptide: 0.25 µg/mL
  Linezolid MIC during combined treatment with peptide: 4 µg/mL
  Vancomycin MIC during combined treatment with peptide: 8 µg/mL
MDRAB 12035; [6]
  Erythromycin MIC during combined treatment with peptide: 0.125 µg/mL
  Linezolid MIC during combined treatment with peptide: 2 µg/mL
  Vancomycin MIC during combined treatment with peptide: 4 µg/mL
MDRAB 12035; [7]
  Erythromycin MIC during combined treatment with peptide: 0.0625 µg/mL
  Linezolid MIC during combined treatment with peptide: 1 µg/mL
  Vancomycin MIC during combined treatment with peptide: 2 µg/mL
MDRAB 12035; [8]
  Erythromycin MIC during combined treatment with peptide: 0 µg/mL
  Linezolid MIC during combined treatment with peptide: 0 µg/mL
  Vancomycin MIC during combined treatment with peptide: 0 µg/mL

## CC[C@H](C)[C@H](NC(=O)[C@H](CCCCN)NC(=O)[C@H](Cc1c[nH]c2ccccc12)NC(=O)[C@@H](N)CCCNC(=N)N)C(=O)N[C@@H](Cc1ccccc1)C(=O)N[C@@H](CCCCN)C(=O)N[C@@H](CCCCN)C(=O)N[C@H](C(=O)N1CCC[C@H]1C(=O)N[C@@H](CCCCN)C(=O)N[C@@H](CC(C)C)C(=O)N[C@@H](CC(C)C)C(=O)N[C@@H](Cc1c[nH]cn1)C(=O)N[C@@H](CO)C(=O)N[C@@H](C)C(=O)N[C@@H](CCCCN)C(=O)N[C@@H](CCCCN)C(=O)N[C@@H](Cc1c[nH]c2ccccc12)C(N)=O)[C@@H](C)CC [PapMA-9, RWK IFK KIP KLL HSA KKW-NH2] (H-RWKIFKKIPKLLHSAKKW-NH2; N-terminus assumed)
MDREC 1238
  Minimal inhibitory concentration MIC: 64 µg/mL (≈ 27.7 µM)
MDRPA 2002
  Minimal inhibitory concentration MIC: 16 µg/mL (≈ 6.94 µM)
MDRPA 2003
  Minimal inhibitory concentration MIC: 16 µg/mL (≈ 6.94 µM)
MDRAB 12036
  Minimal inhibitory concentration MIC: 64 µg/mL (≈ 27.7 µM)
S. typhimurium
  Minimal inhibitory concentration MIC: 32 µg/mL (≈ 13.9 µM)
MDRST 8007
  Minimal inhibitory concentration MIC: 64 µg/mL (≈ 27.7 µM)
MRSA 3114
  Minimal inhibitory concentration MIC: >128 µg/mL
MRSA 3126
  Minimal inhibitory concentration MIC: >128 µg/mL
MDREC 1229; [1]
  Antibiotic MIC, Erythromycin: 64 µg/mL
  Antibiotic MIC, Linezolid: 128 µg/mL
  Antibiotic MIC, Vancomycin: >128 µg/mL
MDREC 1229; [2]
  Antibiotic MIC, Erythromycin: 64 µg/mL
  Antibiotic MIC, Linezolid: 64 µg/mL
  Antibiotic MIC, Vancomycin: >128 µg/mL
MDREC 1229; [3]
  Antibiotic MIC, Erythromycin: 8 µg/mL
  Antibiotic MIC, Linezolid: 32 µg/mL
  Antibiotic MIC, Vancomycin: 128 µg/mL
MDREC 1229; [4]
  Antibiotic MIC, Erythromycin: 2 µg/mL
  Antibiotic MIC, Linezolid: 16 µg/mL
  Antibiotic MIC, Vancomycin: 32 µg/mL
MDREC 1229; [5]
  Antibiotic MIC, Erythromycin: 1 µg/mL
  Antibiotic MIC, Linezolid: 8 µg/mL
  Antibiotic MIC, Vancomycin: 8 µg/mL
MDREC 1229; [6]
  Antibiotic MIC, Erythromycin: 0.5 µg/mL
  Antibiotic MIC, Linezolid: 4 µg/mL
  Antibiotic MIC, Vancomycin: 4 µg/mL
MDREC 1229; [7]
  Antibiotic MIC, Erythromycin: 0.125 µg/mL
  Antibiotic MIC, Linezolid: 2 µg/mL
  Antibiotic MIC, Vancomycin: 2 µg/mL
MDREC 1229; [8]
  Antibiotic MIC, Erythromycin: 0 µg/mL
  Antibiotic MIC, Linezolid: 0 µg/mL
  Antibiotic MIC, Vancomycin: 0 µg/mL
MDRAB 12035; [1]
  Erythromycin MIC during combined treatment with peptide: 16 µg/mL
  Linezolid MIC during combined treatment with peptide: >128 µg/mL
  Vancomycin MIC during combined treatment with peptide: >128 µg/mL
MDRAB 12035; [2]
  Erythromycin MIC during combined treatment with peptide: 16 µg/mL
  Linezolid MIC during combined treatment with peptide: 64 µg/mL
  Vancomycin MIC during combined treatment with peptide: 128 µg/mL
MDRAB 12035; [3]
  Erythromycin MIC during combined treatment with peptide: 4 µg/mL
  Linezolid MIC during combined treatment with peptide: 32 µg/mL
  Vancomycin MIC during combined treatment with peptide: 64 µg/mL
MDRAB 12035; [4]
  Erythromycin MIC during combined treatment with peptide: 0.5 µg/mL
  Linezolid MIC during combined treatment with peptide: 16 µg/mL
  Vancomycin MIC during combined treatment with peptide: 16 µg/mL
MDRAB 12035; [5]
  Erythromycin MIC during combined treatment with peptide: 0.25 µg/mL
  Linezolid MIC during combined treatment with peptide: 4 µg/mL
  Vancomycin MIC during combined treatment with peptide: 8 µg/mL
MDRAB 12035; [6]
  Erythromycin MIC during combined treatment with peptide: 0.25 µg/mL
  Linezolid MIC during combined treatment with peptide: 4 µg/mL
  Vancomycin MIC during combined treatment with peptide: 8 µg/mL
MDRAB 12035; [7]
  Erythromycin MIC during combined treatment with peptide: 0.125 µg/mL
  Linezolid MIC during combined treatment with peptide: 2 µg/mL
  Vancomycin MIC during combined treatment with peptide: 2 µg/mL
MDRAB 12035; [8]
  Erythromycin MIC during combined treatment with peptide: 0 µg/mL
  Linezolid MIC during combined treatment with peptide: 0 µg/mL
  Vancomycin MIC during combined treatment with peptide: 0 µg/mL
